pIC50, pKi: −log10 of the molar value. Structures can show the parent of a compound that is named as a salt.
What was measured:
[1] = target: T1, Human adenosine A2b receptor (Homo sapiens, UniProt P29275); assay: Suppression of NECA-stimulated cAMP production in adenosine A2b receptor expressed CHOK1 cells; type: cell-based; settings: NECA 30 nM
T1 construct: expressed in transfected cells; host or cells: CHOK1 cells
T1 sequence (P29275 1-332): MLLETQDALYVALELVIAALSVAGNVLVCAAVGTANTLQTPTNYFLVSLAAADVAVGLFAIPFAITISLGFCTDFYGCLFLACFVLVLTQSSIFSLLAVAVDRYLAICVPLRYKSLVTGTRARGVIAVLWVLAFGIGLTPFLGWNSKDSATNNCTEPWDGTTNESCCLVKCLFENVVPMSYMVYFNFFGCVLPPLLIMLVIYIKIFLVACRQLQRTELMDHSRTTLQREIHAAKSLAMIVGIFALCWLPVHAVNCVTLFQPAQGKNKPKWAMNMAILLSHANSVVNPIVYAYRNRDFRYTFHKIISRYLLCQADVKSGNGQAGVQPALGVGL
Method: Human adenosine A2b receptor cDNA was over-expressed in CHOK1 cells. […] Affinity of the test compound to the A2b receptor was evaluated in which the index used was the degree of suppression of the amount of cAMP produced by stimulation of NECA (30 nM) which was an adenosine agonist in the presence of the test compound. Thus, after washing with 2 ml/well of an incubation buffer (Krebs solution; pH7.4) twice, a pre-incubation was carried out at 0.5 ml/well for 30 minutes. […] After 15 minutes, the reaction was stopped by substituting 0.1N HCl (300 μl/well) for the reaction solution. Measurement of cAMP was carried out using an Amersham cAMP EIA Kit.
Calculation of the suppression rate of the test compound to the NECA-stimulated cAMP production was done by the following expression.
Inhibition Rate (%)=[1−{(cAMP amount in the presence of NECA and test compound-cAMP amount in the case of incubation buffer only)/(cAMP amount stimulated only by NECA-cAMP amount in the case of incubation buffer only)}]×100.
IC50 […]was calculated from the above.

[2] = test system: spontaneous diabetic mice (KK-A^y/Ta Jcl); assay: Action to hyperglycemia of spontaneous diabetic mice (KK-A^y/Ta Jcl), single oral administration; type: in vivo, mouse
Method: Animals: Five male KK-A^y/Ta Jcl mice for each group (purchased from Nippon Clair)
Preparation and Administration of Test Compound: A test compound in a dose as shown in Table 2 was suspended in a 0.5% aqueous solution of methyl cellulose and was orally administered in a dose of 10 ml/kg.
Collection of Blood Samples and Determination of Blood Sugar: Blood was collected from tail vein immediately before administration of the test compound and also five hours after the administration and blood sugar was determined.
(§1) Method: Tail vein of a mouse was injured by a razor without an anesthetization to bleed slightly. The blood (15 μl) was collected and immediately mixed with 135 μl of a 0.6 M perchloric acid. Glucose in the supernatant obtained by a centrifugal separation (at 1500 g for 10 minutes at 4° C. using a cooling centrifuge GS-6KR of Beckmann) was determined by a Glucose CII Test Wako (Wako Pure Chemicals).
The result is shown in terms of “(% ratio of the blood sugar after 5 hours from the administration to the blood sugar before the administration)±(standard error)”. The data were subjected to a one-way layout analysis of variance and then subjected to a multiple comparison of a Dunnett type. The case where p<0.05 was judged to be that a significant difference was available.
Animals: Five male KK-A^y/Ta Jcl mice for each group (introduced from Nippon Clair)
Preparation and Administration of Test Compound: A test compound in a dose shown in Table 6 was suspended in a 0.5% aqueous solution of methyl cellulose and was orally administered in a dose of 10 ml/kg.
as §1, with “vein of mouse was” for “vein of a mouse was”
The result is shown in terms of “(% ratio of the blood sugar after 5 hours from the administration to the blood sugar before the administration)±(standard error)”. The data were subjected to a one-way layout analysis of variance and then subjected to a multiple comparison of Dunnett type. The case where p<0.05 was judged that a significant difference was available.

[3] = Glucose tolerance test (impaired glucose tolerance); settings: in vivo
adenosine A2a receptor = target: T2, adenosine A2a receptor (Homo sapiens, UniProt P29274); assay: Adenosine A2a receptor binding experiment (3H-CGS21680); settings: A2a receptor membrane specimen
T2 construct: purchased Receptor Biology, Inc
T2 sequence (P29274 whole entry): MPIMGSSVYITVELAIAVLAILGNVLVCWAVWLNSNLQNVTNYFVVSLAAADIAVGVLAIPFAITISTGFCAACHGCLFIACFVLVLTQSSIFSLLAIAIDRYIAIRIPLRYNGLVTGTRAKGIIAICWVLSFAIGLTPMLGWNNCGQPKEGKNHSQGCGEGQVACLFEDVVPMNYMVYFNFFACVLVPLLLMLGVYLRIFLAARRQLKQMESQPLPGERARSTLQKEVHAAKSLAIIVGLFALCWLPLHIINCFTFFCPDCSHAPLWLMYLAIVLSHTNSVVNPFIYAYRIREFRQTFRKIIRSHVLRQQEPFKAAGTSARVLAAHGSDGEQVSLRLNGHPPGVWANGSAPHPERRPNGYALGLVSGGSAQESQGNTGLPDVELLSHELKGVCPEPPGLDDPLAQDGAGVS
Method: A membrane specimen prepared by an over-expression of adenosine A2a receptor was purchased from Receptor Biology, Inc. and adenosine A2a receptor binding experiments were carried out using that. […] To 0.45 ml of this membrane specimen were added 0.025 ml of tritium-labeled ^3H-CGS21680 (500 nM; 30 Ci/mmol) and 0.025 ml of the test compound. The solution of the test compound was prepared in such a manner that, firstly, the compound was dissolved in DMSO to make 20 mM concentration and then successively diluted each 10-fold using an incubation buffer. […] After that, the glass fiber filter was transferred to a vial bottle, a scintillator was added and the radioactivity on the filter was measured by a liquid scintillation counter. Calculation of the inhibition rate of the test compound to the receptor bond (^3H-CGS21680) of A2a was carried out by the following expression and, based upon that, IC50 was calculated. […]
Total binding amount is a ^3H-CGS21680 binding radioactivity in the absence of the test compound.
Non-specific binding amount is a ^3H-CGS21680 binding radioactivity in the presence of 100 μM of RPIA.
Binding amount in the presence of drug is a ^3H-CGS21680 binding radioactivity in the presence of the test compound of various concentrations.

[4] = target: T3, Human adenosine A1 receptor (Homo sapiens, UniProt P30542); assay: Adenosine A1 receptor binding experiment (3H-CCPA); settings: human A1 receptor expressed in CHOK1 membranes
T3 construct: expressed in transfected cells; host or cells: CHOK1 cells (membrane specimen)
T3 sequence (P30542 1-326): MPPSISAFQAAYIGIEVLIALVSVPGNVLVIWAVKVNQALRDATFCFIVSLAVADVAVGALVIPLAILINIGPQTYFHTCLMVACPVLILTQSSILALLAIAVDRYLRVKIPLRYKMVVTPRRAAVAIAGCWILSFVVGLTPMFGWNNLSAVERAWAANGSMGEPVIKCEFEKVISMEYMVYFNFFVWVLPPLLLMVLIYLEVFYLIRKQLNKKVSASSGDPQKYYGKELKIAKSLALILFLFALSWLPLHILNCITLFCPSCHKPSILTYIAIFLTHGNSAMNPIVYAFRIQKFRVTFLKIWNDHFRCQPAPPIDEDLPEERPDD
Method: Human adenosine A1 receptor cDNA was subjected to an over-expression in CHOK1 cells and its membrane specimen was suspended in an incubation buffer (20 mM HEPES, 10 mM MgCl2 and 100 mM NaCl; pH 7.4) to make the concentration 66.7 μg/ml. To 0.45 ml of this membrane specimen were added 0.025 ml of tritium-labeled chlorocyclopentyl adenosine (60 nM ^3H-CCPA; 30 Ci/mmol) and 0.025 ml of the compound to be tested. The solution of the compound to be tested was prepared in such a manner that, firstly, the compound was dissolved in DMSO to make 20 mM concentration and then successively diluted each 10-fold using an incubation buffer. The mixture was allowed to stand at 30° C. for 120 minutes, subjected to a quick suction on a glass fiber filter (GF/B; manufactured by Whatman) and immediately washed with 5 ml of ice-cooled 50mM Tris-HCl buffer twice. After that, the glass fiber filter was transferred to a vial bottle, a scintillator was added and the radioactivity on the filter was measured by a liquid scintillation counter. Calculation of the inhibition rate of the test compound to the receptor bond (^3H-CCPA) was carried out by the following expression and, based upon that, IC50 was calculated.
Inhibition Rate (%)=[1−{(Binding amount in the presence of drug-Non-specific binding amount)/(Total binding amount-Non-specific binding amount)}]×100
Total binding amount is a ^3H-CCPA binding radioactivity in the absence of the test compound.
Non-specific binding amount is a ^3H-CCPA binding radioactivity in the presence of 100 μM of RPIA.
Binding amount in the presence of drug is a ^3H-CCPA binding radioactivity in the presence of the test compound of various concentrations.
The inhibition constant (Ki value) in Table was calculated from Cheng-Prusoff's expression.

Work on Cn1c(-c2cccc(F)c2)nc2c(N)nc(C#CC3(O)CCCC3)nc21 [Compound B] yielded a pIC50 [1] of 7.15.

For O=C(/C=C/c1c(-c2ccccc2)nn2ccccc12)N1CCCC[C@@H]1CCO [FK453, reference compound], the “hypoglycemic action in the present diabetic models (in words)” value ([2]; even at the dose of 100 mg/kg) was “no hypoglycemic action was noted” and the “glucose tolerance improving action in glucose tolerance test (in words)” value [3] was “no glucose tolerance improving action was noted”.

For Fc1cccc(-c2nc3cccnc3n2-c2ccncc2)c1 [Compound C, 2-(3-Fluorophenyl)-(4-pyridyl)-3H-imidazo[4,5-b]pyridine Hydrochloride, reference compound], the “% ratio of the blood sugar after 5 hours from the administration to the blood sugar before the administration ± standard error” value ([2]; Table 6-2, 30 mg/kg oral, solvent group 69.8 ± 2.3) was 48.5 ± 3.4% and the pIC50 [1] was 7.00.

Fc1cccc(-c2nc3cccnc3n2-c2ccncc2)c1 [drawing 261] showed a pKi (adenosine A2a receptor) of 6.12 and a pKi [4] of 7.27.

CCn1c(-c2cccc(F)c2)nc2c(N)nc(C#CC3(O)CCC3)nc21 [drawing 259] gave a pKi (adenosine A2a receptor) of 8.70 and a pKi [4] of 7.62.

With CCCn1c(=O)c2c(nc(/C=C/c3ccc(OC)c(OC)c3)n2C)n(CCC)c1=O [KF17837] the pIC50 [1] was 5.87.

With CCn1c(-c2cccc(F)c2)nc2c(N)nc(C#CC3(O)CCC3)nc21 [Compound A] the “% ratio of the blood sugar after 5 hours from the administration to the blood sugar before the administration ± standard error” value ([2]; Table 6-1, 10 mg/kg oral, administered in a form of sulfate, solvent group 72.4 ± 4.4) was 47.8 ± 4.8% and the pIC50 [1] was 7.55.

Source: patent publication US6579868B1, “Purine derivatives and adenosine A2 receptor antagonists serving as preventives/remedies for diabetes” (Eisai Co., Ltd., priority 1998, dated 2003)
